US4110327A, “2,3 Diketo-piperazinocarbonylamino alkanoic acids and derivatives” (Toyama Chemical Co., Ltd., priority 1974, dated 1978)

Tests used:
Proteus rettgeri = experiment: MIC against clinical isolates; type: cell-based; conditions: clinical isolate, unit assumed
Proteus vulgaris = experiment: MIC against clinical isolates; type: cell-based; conditions: clinical isolate, unit assumed
Klebsiella pneumoniae [1] = experiment: MIC against clinical isolates; type: cell-based; conditions: unit assumed
Klebsiella pneumoniae [2] = experiment: MIC against standard strain, plate method; type: cell-based; conditions: unit assumed
Method in brief: (§1)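 Heart infusion agar (pH 7.4) plates; inoculum 10^4 cells/plate (10^6 cells/ml suspension); MIC read by plate method.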

Escherichia coli NIHJ = experiment: MIC against standard strain, plate method; type: cell-based; conditions: unit assumed
Method in brief: as §1

Proteus vulgaris 3027 = experiment: MIC against standard strain, plate method; type: cell-based; conditions: Proteus vulgaris 3027, standard strain; unit assumed
Method in brief: as §1

[3] = system: Pseudomonas aeruginosa I.F.O.; experiment: MIC against standard strain, plate method; type: cell-based; conditions: unit assumed
Method in brief: as §1

[4] = system: Staphylococcus aureus 209p; experiment: MIC against standard strain, plate method; type: cell-based; conditions: unit assumed
Method in brief: as §1

Pseudomonas aeruginosa = experiment: MIC against clinical isolates; type: cell-based; conditions: unit assumed
Proteus mirabilis = experiment: MIC against clinical isolates; type: cell-based; conditions: clinical isolate, unit assumed
Salmonella typhi = experiment: MIC against clinical isolates; type: cell-based; conditions: unit assumed
Salmonella typhi-murium = experiment: MIC against clinical isolates; type: cell-based; conditions: unit assumed
Proteus morganii = experiment: MIC against clinical isolates; type: cell-based; conditions: clinical isolate, unit assumed
Staphylococcus aureus = experiment: MIC against clinical isolates; type: cell-based; conditions: unit assumed
Escherichia coli = experiment: MIC against clinical isolates; type: cell-based; conditions: unit assumed
Shigella sonnei = experiment: MIC against clinical isolates; type: cell-based; conditions: unit assumed
Description: (§2) The minimum inhibitory concentrations (MIC) was determined by the plate method disclosed in "Chemotherapy" (Japan), Vol. 16, (1968), pages 98 - 99. The culture medium used was a Heart infusion agar (pH 7.4). The number of the cells per plate used in the inoculum as 10^4 (10^6 cells/ml).
(§3) MIC was determined in the same manner as in the preceding paragraph (1).

Shigella flexneri = experiment: MIC against clinical isolates; type: cell-based; conditions: clinical isolate JS 11839; unit assumed
Description: as §2, §3

β-lactamase = experiment: Resistant activity against β-lactamase, iodometric assay; type: biochemical, Pseudomonas aeruginosa GN 238; conditions: relative to Potassium Penicillin G = 100
Description: (3) Resistant activity against β-lactamase, Pseudomonas aergionan GN 238:
The resistant activity of each compound against β-lactamase was measured in the manner described below.
β-Lactamase was prepared from Pseudomonas aeruginosa GN 238. This microorganism was cultured in 100 ml of a medium containing 2 g of yeast extract, 10 g of polypeptone, 2 g of glucose, 7 g of disodium hydrogen phosphate, 2 g of potassium dihydrogen phosphate, 1.2 g of ammonium sulfate and 0.4 g of magnesium sulfate, per liter, in a 500-ml Erlenmeyer flask for 6 hrs. at 37° C with shaking. The resulting cells were collected by centrifugation (5,000 r.p.m. × 10 min.), washed three times with 0.1 M phosphate buffer (pH 7.0). Subsequently, the cells were subjected to sonication (20 KHz, 20 min.) and then centrifuged at 15,000 r.p.m. for 60 min. By using the supernatant of enzyme fluid, the resistance of each compound against β-lactamase was determined by the iodometric assay method. Each numeral shown in Table 7 is a relative activity value calculated by assuming as 100 the activity of the control Potassium Penicillin G.

[5] = clinical isolate GN (number not given; Table 5-3)

SMILES: CC1(C)S[C@@H]2[C@H](NC(=O)[C@H](N)c3ccccc3)C(=O)N2[C@H]1C(=O)O [Sodium Ampicillin, SodiumAmpicillin, reference compound]
- MIC (Proteus rettgeri): 200 µg/mL
- MIC (Proteus vulgaris): < 1.5 µg/mL
- MIC (Klebsiella pneumoniae [1]; clinical isolate GN 917): 25 µg/mL
- MIC (Klebsiella pneumoniae [1]; clinical isolate GN 3850): 50 µg/mL
- MIC (Klebsiella pneumoniae [1]; clinical isolate GN 4081): > 200 µg/mL
- MIC (Klebsiella pneumoniae [1]; clinical isolate GN 4117): > 200 µg/mL
- MIC (Klebsiella pneumoniae [2]): 50 µg/mL
- MIC (Escherichia coli NIHJ): < 1.57 µg/mL
- MIC (Proteus vulgaris 3027): > 200 µg/mL
- MIC [3]: > 200 µg/mL
- MIC [4]: < 1.57 µg/mL
- MIC (Pseudomonas aeruginosa; clinical isolate GN 82): > 200 µg/mL
- MIC (Pseudomonas aeruginosa; clinical isolate GN 163): > 200 µg/mL
- MIC (Pseudomonas aeruginosa; clinical isolate GN 221): > 200 µg/mL
- MIC (Pseudomonas aeruginosa; clinical isolate GN 376): > 200 µg/mL
- MIC (Pseudomonas aeruginosa; clinical isolate GN 383): > 200 µg/mL
- MIC (Pseudomonas aeruginosa; clinical isolate GN 1035): > 200 µg/mL
- MIC (Pseudomonas aeruginosa; clinical isolate GN 1091): > 200 µg/mL
- MIC (Pseudomonas aeruginosa; clinical isolate GN 2565): > 200 µg/mL
- MIC (Pseudomonas aeruginosa; clinical isolate GN 2987): > 200 µg/mL
- MIC (Pseudomonas aeruginosa; [5]): > 200 µg/mL
- MIC (Pseudomonas aeruginosa; clinical isolate S-1): > 200 µg/mL
- MIC (Pseudomonas aeruginosa; clinical isolate S-2): > 200 µg/mL
- MIC (Pseudomonas aeruginosa; clinical isolate S-3): > 200 µg/mL
- MIC (Pseudomonas aeruginosa; clinical isolate S-4): > 200 µg/mL
- MIC (Proteus mirabilis): < 1.57 µg/mL
- MIC (Salmonella typhi; clinical isolate SL 819): 1.56 µg/mL
- MIC (Salmonella typhi; clinical isolate SL 2169): 0.78 µg/mL
- MIC (Salmonella typhi-murium; clinical isolate SL 858): 3.13 µg/mL
- MIC (Salmonella typhi-murium; clinical isolate SL 2136): > 200 µg/mL
- MIC (Proteus morganii): < 1.57 µg/mL
- MIC (Staphylococcus aureus; clinical isolate F-2): 0.79 µg/mL
- MIC (Staphylococcus aureus; clinical isolate F-5): 50 µg/mL
- MIC (Staphylococcus aureus; clinical isolate MS 8588): 6.25 µg/mL
- MIC (Staphylococcus aureus; clinical isolate MS 8619): < 0.4 µg/mL
- MIC (Escherichia coli; clinical isolate GN 3452): 6.25 µg/mL
- MIC (Escherichia coli; clinical isolate GN 3481): 6.25 µg/mL
- MIC (Escherichia coli; clinical isolate GN 3611): > 200 µg/mL
- MIC (Escherichia coli; clinical isolate K-1): 6.25 µg/mL
- MIC (Escherichia coli; clinical isolate K-2): 6.25 µg/mL
- MIC (Escherichia coli; clinical isolate K-3): > 200 µg/mL
- MIC (Shigella sonnei; clinical isolate JS 11232): > 200 µg/mL
- MIC (Shigella sonnei; clinical isolate JS 11755): 6.25 µg/mL
- MIC (Shigella flexneri): 1.57 µg/mL

SMILES: CC1(C)S[C@@H]2[C@H](NC(=O)Cc3ccccc3)C(=O)N2[C@H]1C(=O)O [Potassium Penicillin G, reference compound]
- Relative activity (β-lactamase): 100%

SMILES: CC1(C)S[C@@H]2[C@H](NC(=O)C(c3ccccc3)S(=O)(=O)O)C(=O)N2[C@H]1C(=O)O (stereo partly shown) [Sodium Sulbenicillin, SodiumSulbenicillin, reference compound]
- MIC (Proteus rettgeri): > 200 µg/mL
- Relative activity (β-lactamase): 50%
- MIC (Proteus vulgaris): < 0.4 µg/mL
- MIC (Klebsiella pneumoniae [1]; clinical isolate GN 917): > 200 µg/mL
- MIC (Klebsiella pneumoniae [1]; clinical isolate GN 3850): > 200 µg/mL
- MIC (Klebsiella pneumoniae [1]; clinical isolate GN 4081): > 200 µg/mL
- MIC (Klebsiella pneumoniae [1]; clinical isolate GN 4117): > 200 µg/mL
- MIC (Klebsiella pneumoniae [2]): > 200 µg/mL
- MIC (Proteus vulgaris 3027): 0.79 µg/mL
- MIC [3]: 50 µg/mL
- MIC [4]: 3.13 µg/mL
- MIC (Pseudomonas aeruginosa; clinical isolate GN 82): 50 µg/mL
- MIC (Pseudomonas aeruginosa; clinical isolate GN 163): 50 µg/mL
- MIC (Pseudomonas aeruginosa; clinical isolate GN 221): 25 µg/mL
- MIC (Pseudomonas aeruginosa; clinical isolate GN 376): 50 µg/mL
- MIC (Pseudomonas aeruginosa; clinical isolate GN 383): 50 µg/mL
- MIC (Pseudomonas aeruginosa; clinical isolate GN 1035): 100 µg/mL
- MIC (Pseudomonas aeruginosa; clinical isolate GN 1091): 50 µg/mL
- MIC (Pseudomonas aeruginosa; clinical isolate GN 2565): 100 µg/mL
- MIC (Pseudomonas aeruginosa; clinical isolate GN 2987): 25 µg/mL
- MIC (Pseudomonas aeruginosa; [5]): 50 µg/mL
- MIC (Pseudomonas aeruginosa; clinical isolate S-1): 100 µg/mL
- MIC (Pseudomonas aeruginosa; clinical isolate S-2): 100 µg/mL
- MIC (Pseudomonas aeruginosa; clinical isolate S-3): 100 µg/mL
- MIC (Pseudomonas aeruginosa; clinical isolate S-4): 100 µg/mL
- MIC (Proteus mirabilis): 0.79 µg/mL
- MIC (Proteus morganii): < 0.4 µg/mL
- MIC (Staphylococcus aureus; clinical isolate F-2): 3.13 µg/mL
- MIC (Staphylococcus aureus; clinical isolate F-5): > 200 µg/mL
- MIC (Staphylococcus aureus; clinical isolate MS 8588): 3.13 µg/mL
- MIC (Staphylococcus aureus; clinical isolate MS 8596): 3.13 µg/mL
- MIC (Staphylococcus aureus; clinical isolate MS 8619): 3.13 µg/mL
- MIC (Staphylococcus aureus; clinical isolate MS 8684): 3.13 µg/mL
- MIC (Staphylococcus aureus; clinical isolate MS 8713): 3.13 µg/mL
- MIC (Escherichia coli; clinical isolate GN 3452): 12.5 µg/mL
- MIC (Escherichia coli; clinical isolate GN 3465): > 200 µg/mL
- MIC (Escherichia coli; clinical isolate GN 3481): 12.5 µg/mL
- MIC (Escherichia coli; clinical isolate GN 3611): > 200 µg/mL
- MIC (Escherichia coli; clinical isolate K-2): 12.5 µg/mL
- MIC (Escherichia coli; clinical isolate K-3): > 200 µg/mL
